US20130172342A1, “BENZIMIDAZOLE DERIVATIVES AS SELECTIVE BLOCKERS OF PERSISTENT SODIUM CURRENT” (Allergan, Inc., priority 2011, published 2013)

How the values were obtained:
Format in all cases: cell-based
[1] = system: persistent sodium currents; assay: FLIPR sodium depletion/repletion assay (voltage-sensitive dyes); settings: for IC50: 8-point concentration-response, antagonism of persistent current; for HTS % Block: single concentration HTS protocol, inhibition of the control response
Procedure: To identify compounds that block persistent sodium currents, they were tested in a sodium depletion/repletion assay in which changes in the fluorescence of voltage-sensitive dyes measured in a Fluorometric Imaging Plate Reader (FLIPR) were used to infer the effects of the compounds on persistent sodium currents. The compounds were first tested in a single concentration HTS protocol.

[2] = system: transient sodium currents; assay: IonWorks automated patch clamp, whole-cell voltage clamp; settings: inhibition of transient sodium currents, read-out: IW IC50
Procedure: To determine the selectivity of effects of these compounds on the persistent current, the inhibition of transient sodium currents using an automated patch clamp was also tested for the compounds. For direct measurement of Na+ currents the IonWorks automated patch clamp system was used. The IonWorks system is a high-throughput electrophysiological instrument that performs whole-cell voltage clamp recordings in a 384-well plate format.

[3] = system: Nav1.3 or Nav1.6 channels; assay: gigohm-seal manual patch-clamp (MPC) in HEK cells stably transfected with sodium channels; settings: for block of persistent versus transient sodium currents: FIG. 1, percentage of control current at steady state, n=3; for concentration effective in blocking 50% of the persistent current: HEK cells expressing Nav1.3 or Nav1.6, FIG. 1
Procedure: Nav1.3 or Nav1.6 channels were expressed in HEK cells, currents were measured using standard MPC electrophysiological techniques. Data are summarized from at least 3 experiments for each concentration tested and were normalized to the control currents before compound addition. Data are presented as the mean and standard error of the mean (n=3) of the percentage of the control current observed at steady state after compound addition.
Therefore, the efficacy and selectivity of the identified persistent current antagonists were verified using conventional gigohm-seal manual patch-clamp (MPC).
MPC experiments were conducted on human embroynic kidney (HEK) cells stably transfected with sodium channels were plated on coverslips. Cells were patch clamped using standard patch-clamp techniques (Hamill, O. P., A. Marty, et al., 1981 Pflugers Arch. 391:85-100). Once sufficient persistent current was established, buffer was introduced into the chamber at a constant flow rate of […] until the persistent current stabilized. Subsequent concentration-response experiments were conducted using this same flow rate. After application of the compound, current amplitude was monitored until equilibrium was established. The data recorded at equilibrium was normalized to the control current measured during perfusion with control buffer in the absence of a test compound. Adequate solution perfusion and gigohm seal stability were monitored throughout the experiment. The compound's antagonism of persistent or transient sodium currents is expressed as the IC5O of block for the respective current (see Table 1). Selectivity for block of the persistent current was calculated as the ratio of the IC5O for the transient current divided by the IC5O for the persistent current.
Direct measurement of the sodium current in cells expressing either Nav1.3 or
As shown for the exemplary compounds (compound #1 in Table 1 and Compound A shown below)

Compound	IC50 [1]	IC50 [2]	HTS % Block [1]	block of persistent versus transient sodium currents [3]	concentration effective in blocking 50% of the persistent current [3]
COc1ccccc1OCCn1c(CN2CCOCC2)nc2ccccc21	> 30 µM	> 30 µM	70.1%		
Cc1cc(C)cc(OCCn2c(CN3CCOCC3)nc3ccccc32)c1	1.47 µM	> 30 µM	92.6%		
C/C=C/c1ccc(OCCn2c(C(C)N3CCCCC3)nc3ccccc32)c(OC)c1 (stereo not drawn)	> 30 µM	> 30 µM	34.6%		
Cc1cccc(OCCn2c(CN3CCOCC3)nc3ccccc32)c1C	3.53 µM	> 30 µM	97.3%		
COc1ccc(OCCn2c(C(C)N3CCOCC3)nc3ccccc32)cc1 (stereo not drawn)	9.81 µM	> 30 µM	92.9%		
COc1ccc(OCCn2c(C(C)N3CCCCC3)nc3ccccc32)cc1 (stereo not drawn)	0.95 µM	> 30 µM	95.2%		
C/C=C/c1ccc(OCCn2c(CN3CCOCC3)nc3ccccc32)c(OC)c1	18.2 µM	> 30 µM	75.7%		
Cc1ccc(OCCn2c(CN3CCOCC3)nc3ccccc32)cc1	6.38 µM	> 30 µM	92.3%		
Cc1ccccc1OCCn1c(CN2CCCCC2)nc2ccccc21	5.56 µM	> 30 µM	93.6%		
COc1ccccc1OCCCCn1c(CN2CCCCC2)nc2ccccc21	0.83 µM	> 30 µM	95.5%		
Cc1ccc(C)c(OCCn2c(CN3CCCCC3)nc3ccccc32)c1	0.559 µM	22.8 µM	88.9%		
Cc1ccc(OCCn2c(CN3CCCCC3)nc3ccccc32)cc1	0.751 µM	> 30 µM	94.6%		
COc1ccc(OCCn2c(CN3CCOCC3)nc3ccccc32)cc1	> 30 µM	> 30 µM	57.7%		
Cc1ccc(C(C)C)c(OCCn2c(CN3CCOCC3)nc3ccccc32)c1 [Compound A]				effective in blocking persistent sodium currents at concentrations that did not affect transient currents	low to submicromolar
CC(C)N(C(=O)Cn1c(CN2CCCCC2)nc2ccccc21)c1ccccc1	6.35 µM	> 30 µM	84.2%		
Cc1cccc(C)c1OCCn1c(CN2CCOCC2)nc2ccccc21	0.729 µM	> 30 µM	95.2%		
Cc1ccccc1OCCn1c(CN2CCOCC2)nc2ccccc21	3.24 µM	> 30 µM	92.7%		
Cc1cccc(OCCn2c(CN3CCCCC3)nc3ccccc32)c1C	0.452 µM	13.8 µM	78.9%		
Cc1ccc(OCCn2c(CN3CCOCC3)nc3ccccc32)c(C)c1	4.52 µM	> 30 µM	79.3%		
C=CCc1ccccc1OCCn1c(CN2CCOCC2)nc2ccccc21	1.14 µM	> 30 µM	91.5%		
c1ccc(OCCn2c(CN3CCOCC3)nc3ccccc32)cc1	7.79 µM	> 30 µM	99.2%		
Cc1ccc(OCCn2c(CN3CCCCC3)nc3ccccc32)cc1C	0.589 µM	23.4 µM	80.1%		

Further lines, with some results ahead:

IC50 [1]	IC50 [2]	Compound	HTS % Block [1]	block of persistent versus transient sodium currents [3]	concentration effective in blocking 50% of the persistent current [3]
0.066 µM	> 30 µM	Cc1cccc(C)c1OCCn1c(CN2CCCCC2)nc2ccccc21 [Compound #1, 1-[2-(2,6-Dimethylphenoxy)ethyl]-2-piperidin-1-ylmethyl-1H-benzimidazole]		effective in blocking persistent sodium currents at concentrations that did not affect transient currents	low to submicromolar
0.852 µM	> 30 µM	Cc1cccc(C)c1OCCCn1c(CN2CCOCC2)nc2ccccc21	98.9%		
1.46 µM	27.8 µM	Clc1ccc(OCCn2c(CN3CCCCC3)nc3ccccc32)cc1	80.7%		
5.12 µM	≥ 30 µM	C=CCc1ccc(OCCn2c(CN3CCOCC3)nc3ccccc32)c(OC)c1	70.7%		
0.521 µM	> 30 µM	COc1cccc(OCCn2c(CN3CCCCC3)nc3ccccc32)c1	96.5%		
16.3 µM	> 30 µM	CCn1c(C(C)N2CCCCC2)nc2ccccc21 (stereo not drawn)	90.6%		
2.3 µM	> 30 µM	Cc1ccc(C)c(OCCn2c(CN3CCOCC3)nc3ccccc32)c1	92.7%		
0.347 µM	> 30 µM	COc1ccccc1OCCn1c(CN2CCCCC2)nc2ccccc21	94.8%		
3.67 µM	30 µM	CCc1ccc(OCCn2c(CN3CCOCC3)nc3ccccc32)cc1	90.8%		
7.85 µM	> 30 µM	Cc1cccc(OCCn2c(CN3CCOCC3)nc3ccccc32)c1	86.5%		
